In ChEMBL document CHEMBL3751776, “Expanding the structural diversity of diarylureas as multi-target tyrosine kinase inhibitors” (Bioorg Med Chem, 2016):

What was measured:
[1] = molecular target: Vascular endothelial growth factor receptor 2 (Homo sapiens, UniProt P35968); test: Inhibition of KDR (unknown origin) incubated for 1 hr assessed as luminescence changes using ATP by ADP-Glo Kinase assay
[2] = molecular target: Fibroblast growth factor receptor 1 (Homo sapiens, UniProt P11362); test: Inhibition of FGFR1 (unknown origin) incubated for 1 hr assessed as luminescence changes using ATP by ADP-Glo Kinase assay
Chain of Fibroblast growth factor receptor 1 (P11362 whole entry): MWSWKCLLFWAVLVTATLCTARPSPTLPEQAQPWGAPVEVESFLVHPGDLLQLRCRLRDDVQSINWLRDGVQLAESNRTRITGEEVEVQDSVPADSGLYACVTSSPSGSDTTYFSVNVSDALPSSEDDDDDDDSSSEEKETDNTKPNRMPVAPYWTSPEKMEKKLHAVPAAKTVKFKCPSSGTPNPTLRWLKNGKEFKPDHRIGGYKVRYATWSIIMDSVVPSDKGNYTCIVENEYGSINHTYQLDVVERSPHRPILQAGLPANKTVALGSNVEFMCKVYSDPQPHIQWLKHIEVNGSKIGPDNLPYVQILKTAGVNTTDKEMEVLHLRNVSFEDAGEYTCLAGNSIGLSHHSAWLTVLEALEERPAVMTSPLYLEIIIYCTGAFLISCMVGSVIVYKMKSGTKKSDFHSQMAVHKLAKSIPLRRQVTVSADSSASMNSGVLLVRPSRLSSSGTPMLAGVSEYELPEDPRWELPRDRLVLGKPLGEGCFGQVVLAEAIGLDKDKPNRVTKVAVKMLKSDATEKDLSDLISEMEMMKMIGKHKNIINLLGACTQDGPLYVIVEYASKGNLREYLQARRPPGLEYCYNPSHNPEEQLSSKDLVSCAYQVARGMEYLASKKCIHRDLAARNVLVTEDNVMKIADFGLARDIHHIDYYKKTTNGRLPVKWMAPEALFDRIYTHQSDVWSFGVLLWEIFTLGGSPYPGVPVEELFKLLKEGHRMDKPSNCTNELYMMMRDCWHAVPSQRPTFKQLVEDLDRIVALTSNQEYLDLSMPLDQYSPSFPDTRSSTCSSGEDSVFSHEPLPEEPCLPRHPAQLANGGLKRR

[3] = molecular target: Epidermal growth factor receptor (Homo sapiens, UniProt P00533); test: Inhibition of EGFR (unknown origin) incubated for 1 hr assessed as luminescence changes using ATP by ADP-Glo Kinase assay
Chain of Epidermal growth factor receptor (P00533 whole entry): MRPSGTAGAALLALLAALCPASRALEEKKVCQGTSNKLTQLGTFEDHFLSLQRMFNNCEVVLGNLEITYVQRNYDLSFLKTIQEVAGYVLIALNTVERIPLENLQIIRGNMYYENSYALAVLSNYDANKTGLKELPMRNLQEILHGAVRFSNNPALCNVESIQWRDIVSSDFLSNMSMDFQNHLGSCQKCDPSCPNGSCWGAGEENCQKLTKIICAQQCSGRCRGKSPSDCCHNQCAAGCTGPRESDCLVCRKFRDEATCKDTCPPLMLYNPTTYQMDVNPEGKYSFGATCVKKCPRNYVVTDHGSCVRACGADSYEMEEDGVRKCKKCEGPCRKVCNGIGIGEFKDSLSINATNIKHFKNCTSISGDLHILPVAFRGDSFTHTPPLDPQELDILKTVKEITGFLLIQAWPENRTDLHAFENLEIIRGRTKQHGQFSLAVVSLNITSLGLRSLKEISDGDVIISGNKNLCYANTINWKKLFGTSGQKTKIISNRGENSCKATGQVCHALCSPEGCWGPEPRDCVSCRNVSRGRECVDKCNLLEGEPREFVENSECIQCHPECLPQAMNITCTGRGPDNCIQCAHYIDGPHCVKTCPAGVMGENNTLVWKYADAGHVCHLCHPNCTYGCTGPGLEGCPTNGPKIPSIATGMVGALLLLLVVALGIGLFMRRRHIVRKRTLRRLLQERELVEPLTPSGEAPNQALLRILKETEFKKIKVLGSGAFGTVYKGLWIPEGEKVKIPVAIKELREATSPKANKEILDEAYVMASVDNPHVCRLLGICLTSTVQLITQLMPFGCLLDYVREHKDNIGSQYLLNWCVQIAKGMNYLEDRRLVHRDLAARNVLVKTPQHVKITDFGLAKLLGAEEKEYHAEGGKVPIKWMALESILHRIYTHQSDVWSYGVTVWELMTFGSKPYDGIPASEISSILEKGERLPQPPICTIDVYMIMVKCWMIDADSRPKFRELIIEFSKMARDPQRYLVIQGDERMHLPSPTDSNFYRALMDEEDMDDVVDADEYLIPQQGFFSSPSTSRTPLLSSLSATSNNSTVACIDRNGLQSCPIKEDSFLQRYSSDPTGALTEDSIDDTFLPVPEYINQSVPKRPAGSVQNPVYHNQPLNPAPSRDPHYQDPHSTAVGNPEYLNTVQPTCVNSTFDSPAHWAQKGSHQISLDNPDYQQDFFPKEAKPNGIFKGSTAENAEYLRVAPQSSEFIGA

[4] = Antiproliferative activity against human SMMC7721 cells assessed as growth inhibition after 48 hrs by MTT assay; assay type: functional, cell-based; conditions: SMMC-7721, 48 h
A549 = test: Antiproliferative activity against human A549 cells assessed as growth inhibition after 48 hrs by MTT assay; assay type: functional, cell-based; conditions: A549, 48 h

Chain of Vascular endothelial growth factor receptor 2 (P35968 whole entry): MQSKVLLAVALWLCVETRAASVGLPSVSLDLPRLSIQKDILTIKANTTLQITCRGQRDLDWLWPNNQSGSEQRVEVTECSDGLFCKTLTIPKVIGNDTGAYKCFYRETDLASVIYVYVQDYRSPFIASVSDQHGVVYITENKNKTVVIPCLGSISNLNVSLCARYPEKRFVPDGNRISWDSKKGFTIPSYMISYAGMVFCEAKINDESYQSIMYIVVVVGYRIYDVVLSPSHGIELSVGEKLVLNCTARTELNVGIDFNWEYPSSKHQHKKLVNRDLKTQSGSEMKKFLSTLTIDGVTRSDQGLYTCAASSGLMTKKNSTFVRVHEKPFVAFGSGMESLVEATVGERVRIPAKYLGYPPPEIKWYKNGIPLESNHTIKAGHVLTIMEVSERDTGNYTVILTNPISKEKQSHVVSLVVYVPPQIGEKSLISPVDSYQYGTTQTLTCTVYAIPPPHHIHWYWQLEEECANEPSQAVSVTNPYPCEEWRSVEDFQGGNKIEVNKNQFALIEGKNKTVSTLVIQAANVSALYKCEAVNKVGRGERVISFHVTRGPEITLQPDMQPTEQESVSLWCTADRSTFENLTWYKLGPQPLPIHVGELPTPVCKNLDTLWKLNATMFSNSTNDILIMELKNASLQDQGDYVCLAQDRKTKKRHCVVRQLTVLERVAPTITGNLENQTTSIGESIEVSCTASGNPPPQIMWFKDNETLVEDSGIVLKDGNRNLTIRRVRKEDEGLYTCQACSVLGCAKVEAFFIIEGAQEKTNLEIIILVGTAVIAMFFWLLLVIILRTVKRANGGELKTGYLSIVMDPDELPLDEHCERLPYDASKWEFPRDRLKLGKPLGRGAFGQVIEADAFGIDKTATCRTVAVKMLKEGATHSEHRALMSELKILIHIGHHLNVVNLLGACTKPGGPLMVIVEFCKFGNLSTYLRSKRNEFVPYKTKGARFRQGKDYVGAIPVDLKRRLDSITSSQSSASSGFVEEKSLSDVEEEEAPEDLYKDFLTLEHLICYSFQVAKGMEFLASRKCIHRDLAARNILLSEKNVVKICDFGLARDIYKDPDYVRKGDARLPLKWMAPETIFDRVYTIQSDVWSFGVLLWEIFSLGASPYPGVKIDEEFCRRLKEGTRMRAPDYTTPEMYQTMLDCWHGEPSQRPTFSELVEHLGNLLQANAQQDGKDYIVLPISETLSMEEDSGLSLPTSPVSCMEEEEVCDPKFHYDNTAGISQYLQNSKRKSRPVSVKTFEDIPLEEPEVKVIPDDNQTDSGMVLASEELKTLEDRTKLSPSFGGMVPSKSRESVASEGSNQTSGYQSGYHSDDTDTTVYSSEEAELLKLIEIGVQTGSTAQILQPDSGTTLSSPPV

Structure (SMILES)	IC50 [1] [nM]	IC50 [2] [nM]	IC50 [3] [nM]	IC50 [4] [nM]	IC50 (A549) [nM]
COc1ccc(-c2cc(NC(=O)Nc3nccs3)cc(C(F)(F)F)c2)cn1	> 500	> 500	477	36200	–
O=C(Nc1ccncc1)Nc1cc(-c2cncnc2)cc(C(F)(F)F)c1	21.6	28.2	14.8	3730	2420
COc1cc(NC(=O)Nc2ccccn2)cc(-c2cccnc2)c1OC	> 500	69.3	48.8	22400	13500
COc1cc(NC(=O)Nc2nccs2)cc(-c2cn(C)cn2)c1OC	420	> 500	362	–	–
O=C(Nc1nccs1)Nc1cc(-c2cncnc2)ccc1OC(F)(F)F	68.6	154	71.7	9350	17600
O=C(Nc1ccncc1)Nc1cc(-c2cncnc2)ccc1OC(F)(F)F	22.2	32.6	18	3990	3750
O=C(Nc1ccncc1)Nc1cc(-c2cccnc2)cc(C(F)(F)F)c1	93	138	189	–	> 300000
Cn1cnc(-c2ccc(OC(F)(F)F)c(NC(=O)Nc3ccncc3)c2)c1	355	371	94.8	> 300000	79300
COc1ccc(-c2ccc(OC(F)(F)F)c(NC(=O)Nc3ccccn3)c2)cn1	> 500	> 500	> 500	90400	177000
Cn1cnc(-c2cc(NC(=O)Nc3nccs3)cc(C(F)(F)F)c2)c1	285	> 500	311	–	163000
O=C(Nc1cc(-c2cccnc2)cc(C(F)(F)F)c1)Nc1nccs1	57.4	99.2	78.2	68200	92100
COc1ccc(-c2ccc(OC(F)(F)F)c(NC(=O)Nc3nccs3)c2)cn1	390	> 500	495	44100	35000
O=C(Nc1ccccn1)Nc1cc(-c2cccnc2)ccc1OC(F)(F)F	86.7	130	–	35600	19000
COc1ccc(-c2cc(NC(=O)Nc3ccncc3)cc(OC)c2OC)cn1	> 500	> 500	455	–	–
COc1cc(NC(=O)Nc2ccccn2)cc(-c2c[nH]cn2)c1OC	33.2	56.5	24.8	21200	14100
COc1ccc(-c2ccc(OC(F)(F)F)c(NC(=O)Nc3ccncc3)c2)cn1	> 500	99.8	103	–	> 300000
O=C(Nc1nccs1)Nc1cc(-c2cccnc2)ccc1OC(F)(F)F	107	96.1	121	12500	–
COc1cc(NC(=O)Nc2ccncc2)cc(-c2cccnc2)c1OC	213	272	131	73600	–
O=C(Nc1ccncc1)Nc1cc(-c2cccnc2)ccc1OC(F)(F)F	128	104	97.2	42800	39800
COc1ccc(-c2cc(NC(=O)Nc3ccncc3)cc(C(F)(F)F)c2)cn1	364	> 500	> 500	> 300000	276000
O=C(Nc1ccccn1)Nc1cc(-c2cncnc2)ccc1OC(F)(F)F	52.2	81.3	26.6	21600	15200
Cn1cnc(-c2cc(NC(=O)Nc3ccncc3)cc(C(F)(F)F)c2)c1	223	261	166	235000	39400
O=C(Nc1cc(-c2cncnc2)cc(C(F)(F)F)c1)Nc1nccs1	86.7	> 500	71.8	29700	18300
COc1cc(NC(=O)Nc2nccs2)cc(-c2cccnc2)c1OC	291	334	317	–	106000
COc1cc(NC(=O)Nc2ccncc2)cc(-c2cncnc2)c1OC	492	> 500	290	12900	17300
COc1ccc(-c2cc(NC(=O)Nc3ccccn3)cc(OC)c2OC)cn1	79.4	> 500	66.6	32900	24700
CNC(=O)c1cc(Oc2ccc(NC(=O)Nc3ccc(Cl)c(C(F)(F)F)c3)cc2)ccn1 [SORAFENIB]	–	–	–	1580	2020
